Measured values published in patent publication US20220402867A1, “SULFO-SUBSTITUTED BIARYL COMPOUND OR SALT THEREOF, PREPARATION METHOD THEREFOR, AND USE THEREOF” (Shanghai Litedd Co., Ltd., priority 2019, published 2022).
Like-named read-outs stand apart in the source and are kept apart here.

Tests used:
[1] = Metabolic stability in mouse liver microsomes; type: in vitro ADME, CD-1 mice; settings: for half-life: CD-1; for microsomal CLint: CD-1, 0.5 mg protein/mL
In short: (§1)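 Compound incubated at 37 °C with 0.5 mg protein/mL liver microsomes plus cofactors in PBS, sampled at 0–60 min, quenched with cold acetonitrile and quantified by HPLC-MS/MS (n=3). Half-life and Clint (μL/min/mg) come from the slope of ln(% remaining) versus time.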

[2] = Pharmacokinetic (PK) assay in mice; type: in vivo; settings: CD-1 mice; for AUC(0-t) / Cmax / half-life / Vd / bioavailability: mouse, plasma; for Vd: read-out: Vss; for bioavailability: Po 5 mg/kg vs IV 1 mg/kg
In short: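 CD-1 mice (3 per group) were dosed IV at 1 mg/kg in 5% DMSO/40% PEG400/55% (20% 3-CD) or by oral gavage at 5 mg/kg in DMSO/1% methylcellulose (1:99). Saphenous blood was sampled from 0 to 24 h into EDTA-K2 tubes for plasma. Plasma levels were measured by UPLC-MS/MS, and PK parameters were calculated from them.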

[3] = Metabolic stability in human liver microsomes; type: in vitro ADME; settings: for microsomal CLint: 0.5 mg protein/mL
In short: as §1

[4] = system: mouse spleen lymphocytes (Th17 cells); test: Th17 differentiation and IL-17 secretion in mouse lymphocytes; type: cell-based; settings: Lymphocyte, IL-17 ELISA after 48 hours; for Emax: maximum activation rate
Procedure: Test procedure: the mouse spleen lymphocytes were first isolated, and the lymphocytes were subject to the conditions of stimulating factors (anti-mCD28: 5 μg/mL; rmTGF-β1: 1 ng/mL; rmIL-6: 50 ng/mL; rmIL-23: 5 ng/mL) and differentiated to Th17, while adding different concentrations of compounds. All test compounds were serially diluted at 3-fold dilution with DMSO, with 8 serial dilutions starting from the maximum concentration 3 μM. The supernatants were collected after 48 hours for IL-17 ELISA detection, and compared with the solvent group, to determine the activation rate of the compounds on Th17 cells to secrete IL-17. EC50 values were fitted with Graphad 8.0, and the TOP values fitted by the software was Emax %.

Row | SMILES | % Remaining (T = 60 min) [1] [%] | half-life [1] [h] | microsomal CLint [1] [µL/min/mg] | CL_obs ([2]; IV 1 mg/kg, values marked **) | AUC(0-t) ([2]; IV 1 mg/kg) [ng·h/mL] | Cmax ([2]; IV 1 mg/kg) [ng/mL] | half-life ([2]; IV 1 mg/kg) [h] | Vd ([2]; IV 1 mg/kg, values marked *) [L/kg] | bioavailability [2] [%] | AUC(0-t) ([2]; Po 5 mg/kg) [ng·h/mL] | Cmax ([2]; Po 5 mg/kg) [ng/mL] | half-life ([2]; Po 5 mg/kg) [h] | half-life [3] [h] | microsomal CLint [3] [µL/min/mg] | % Remaining (T = 60 min) [3] [%] | CL_obs ([2]; IV 1 mg/kg) [mL/h/kg] | Vd ([2]; IV 1 mg/kg) [L/kg] | EC50 [4] [nM] | Emax [4] [%]
1 | COCC(C(=O)Nc1ccc(-c2ccc(S(=O)(=O)C3CC3)cc2)c(C(F)(F)F)c1)c1ccc(S(C)(=O)=O)cc1 (single isomer, unassigned) [Example 43, (S)—N-(4′-(cyclopropylsulfonyl)-2-(trifluoromethyl)-[1,1′-biphenyl]-4-yl)-3-methoxy-2-(4-(methylsulfonyl)phenyl)propionamide or (R)—N-(4′-(cyclopropylsulfonyl)-2-(trifluoromethyl)-[1,1′-biphenyl]-4-yl)-3-methoxy-2-(4-(methylsulfonyl)phenyl)propanamide] | 64.4 | 1.56 | 14.8 | 4.31** mL/min/kg | 3810 | 787 | 4.14 | 1.38 | 89.1 | 17100 | 3040 | 3.51 | 1.68 | 13.8 | 69 |  |  |  | 
2 | CCS(=O)(=O)c1ccc(CC(=O)Nc2cc(Cl)c(-c3ccc(S(C)(=O)=O)cc3)c(Cl)c2)nc1 [Example 8, N-(2,6-Dichloro-4′-(methylsulfonyl)-[1,1′-biphenyl]-4-yl)-2-(5-(ethylsulfonyl)pyridin-2-yl)acetamide] | 107.80 | > 2.42 | < 9.6 |  |  |  |  |  |  |  |  |  | > 2.42 | < 9.6 | 95.6 |  |  | 370 | 85
3 | CCS(=O)(=O)c1ccc(-c2c(Cl)cc(NC(=O)Cc3ccc(S(C)(=O)=O)cn3)cc2Cl)cc1 [Example 9, N-(2,6-Dichloro-4′-(ethylsulfonyl)-[1,1′-biphenyl]-4-yl)-2-(5-(methylsulfonyl)pyridin-2-yl)acetamide] | 64.20 | 1.64 |  |  |  |  |  |  |  |  |  |  | > 2.42 | < 9.6 | 102.5 |  |  | 943 | 65.4
4 | CS(=O)(=O)c1ccc(CC(=O)Nc2cc(Cl)c(-c3ccc(S(=O)(=O)C4CC4)cc3)c(Cl)c2)cc1 [Example 11, N-(2,6-Dichloro-4′-(cyclopropylsulfonyl)-[1,1′-biphenyl]-4-yl)-2-(4-(methylsulfonyl)phenyl)acetamide] | 97.10 | > 2.42 | < 9.6 |  | 7250 | 709 | 6.33 |  | 86.1 | 31200 | 3810 | 4.52 | > 2.42 | < 9.6 | 110.5 | 128.6 | 1.04 | 318 | 123
5 | CCS(=O)(=O)c1ccc(C(COC)C(=O)Nc2cc(Cl)c(-c3ccc(S(=O)(=O)C4CC4)cc3)c(Cl)c2)cc1 (stereo not drawn) [Example 16, N-(2,6-Dichloro-4′-(cyclopropylsulfonyl)-[1,1′-biphenyl]-4-yl)-2-(4-(ethylsulfonyl)phenyl)-3-methoxypropionamide] | 68.90 | 2.24 | 10.7 | 4.51** mL/min/kg | 3660 | 1170 | 3.88 | 1.1 | 56.3 | 10300 | 1420 | 3.3 | > 2.42 | < 9.6 | 100.7 |  |  |  | 
6 | COCC(C(=O)Nc1cc(Cl)c(-c2ccc(S(=O)(=O)C3CC3)cc2)c(Cl)c1)c1ccc(S(C)(=O)=O)cc1 (stereo not drawn) [Example 20, N-(2,6-Dichloro-4′-(cyclopropylsulfonyl)-[1,1′-biphenyl]-4-yl)-3-methoxy-2-(4-(methylsulfonyl)phenyl)propionamide] | 75.50 | 2.21 | 10.5 | 1.98** mL/min/kg | 8280 | 1160 | 4.85 | 0.75 | 57.3 | 21600 | 1660 | 6.95 | 1.34 | 17.3 | 53.9 |  |  |  | 

Further lines, with some results ahead:

Row | % Remaining (T = 60 min) [1] [%] | half-life [1] [h] | microsomal CLint [1] [µL/min/mg] | CL_obs ([2]; IV 1 mg/kg, values marked **) | AUC(0-t) ([2]; IV 1 mg/kg) [ng·h/mL] | Cmax ([2]; IV 1 mg/kg) [ng/mL] | half-life ([2]; IV 1 mg/kg) [h] | Vd ([2]; IV 1 mg/kg, values marked *) [L/kg] | bioavailability [2] [%] | AUC(0-t) ([2]; Po 5 mg/kg) [ng·h/mL] | Cmax ([2]; Po 5 mg/kg) [ng/mL] | half-life ([2]; Po 5 mg/kg) [h] | half-life [3] [h] | microsomal CLint [3] [µL/min/mg] | % Remaining (T = 60 min) [3] [%] | CL_obs ([2]; IV 1 mg/kg) [mL/h/kg] | Vd ([2]; IV 1 mg/kg) [L/kg] | EC50 [4] [nM] | SMILES | Emax [4] [%]
7 | 89.30 | > 2.42 | < 9.6 |  | 2250 | 737 | 1.76 |  | 112 | 12600 | 3030 | 2.46 | > 2.42 | < 9.6 | 75.7 | 426.2 | 1.09 | 114 | CCS(=O)(=O)c1ccc(CC(=O)Nc2cc(Cl)c(-c3ccc(S(C)(=O)=O)cc3)c(Cl)c2)cc1 [Example 2, N-(2,6-dichloro-4′-(methylsulfonyl)-[1,1′-biphenyl]-4-yl)-2-(4-(ethylsulfonyl)phenyl)acetamide] | 203
8 | 22.20 | 0.47 |  |  |  |  |  |  |  |  |  |  | > 2.42 | < 9.6 | 83.4 |  |  | 112 | CCS(=O)(=O)c1ccc(-c2c(Cl)cc(NC(=O)Cc3ccc(S(C)(=O)=O)cc3)cc2Cl)cc1 [Example 4, N-(2,6-Dichloro-4′-(ethylsulfonyl)-[1,1′-biphenyl]-4-yl)-2-(4-(methylsulfonyl)phenyl)acetamide] | 156
9 | 35.50 | 0.707 |  |  | 730 | 1360 | 0.45 |  | 38.8 | 1420 | 1770 | 0.5 | > 2.42 | < 9.6 | 76.7 | 1367 | 0.893 | 11.4 | CCS(=O)(=O)c1ccc(-c2c(Cl)cc(NC(=O)Cc3ccc(S(=O)(=O)CC)cn3)cc2Cl)cc1 [Example 5, N-(2,6-Dichloro-4′-(ethylsulfonyl)-[1,1′-biphenyl]-4-yl)-2-(5-(ethylsulfonyl)pyridin-2-yl)acetamide] | 147
10 | 28 | 0.543 |  |  | 786 | 1320 | 0.63 |  | 24.2 | 952 | 1220 | 0.54 | 2.07 |  | 71.4 | 1264.7 | 0.713 | 5.7 | CCS(=O)(=O)c1ccc(-c2c(Cl)cc(NC(=O)C(COC)c3ccc(S(=O)(=O)CC)cc3)cc2Cl)cc1 (stereo not drawn) [Example 13, N-(2,6-Dichloro-4′-(ethylsulfonyl)-[1,1′-biphenyl]-4-yl)-2-(4-(ethylsulfonyl)phenyl)-3-methoxypropionamide] | 134
